US8258115B2, “Stable salts of S-adenosylmethionine and process for the preparation thereof” (priority 2007, dated 2012)

Columns and labels:
Type in all cases: physicochemical
[1] = Stability test in thermostated heaters at 40° C. and 75% R.H., active ingredient %; settings: heat-sealed aluminium/aluminium bags
Experimental: (§1) In the following Tables 2-13, the percentage values are repotted which were obtained in the stability tests carried out on the products of examples 1-6. The stability tests were carried out in thermostated heaters at 40° C. and 75% R.H (tables 2-7) as well as 25° C. and 60% R.H. (tables 8-13), preserving the samples in heat-sealed aluminium/aluminium bags according to the following criteria: the active ingredient % was determined for every sampling point taken under consideration.

[2] = Degradation of the active stereoisomer S,S at 25° C. and 65% R.H.
Experimental: (§2) In the following Tables 14-25, the percentage values are reported of the degradation of the active stereoisomer S,S calculated at 40° C. and 75% R.H. (Tables 14-19) and at 25° C. and 65% R.H.

[3] = Degradation of the active stereoisomer S,S at 40° C. and 75% R.H.
Experimental: as §2

[4] = Moisture % K.F. of the stability samples; settings: sample used in the stability test
Experimental: as §1, with “the active ingredient % was determined for every sampling point taken under consideration.” left out

[5] = Stability test in thermostated heaters at 25° C. and 60% R.H., active ingredient %; settings: heat-sealed aluminium/aluminium bags
Experimental: as §1

Row | SMILES | stability test percentage value (active ingredient %), 30 days [1] | stability test percentage value (active ingredient %), 60 days [1] | stability test percentage value (active ingredient %), 90 days [1] | stability test percentage value (active ingredient %), 120 days [1] | stability test percentage value (active ingredient %), 180 days [1] | percentage of the active S,S stereoisomer remaining ([2]; 30 days) | percentage of the active S,S stereoisomer remaining ([2]; 90 days) | percentage of the active S,S stereoisomer remaining ([2]; 180 days) | percentage of the active S,S stereoisomer remaining ([2]; 360 days) | percentage of the active S,S stereoisomer remaining ([2]; 720 days) | percentage of the active S,S stereoisomer remaining ([2]; T = 0) | percentage of active S,S stereoisomer remaining ([3]; 30 days) | percentage of active S,S stereoisomer remaining ([3]; 60 days) | percentage of active S,S stereoisomer remaining ([3]; 90 days) | percentage of active S,S stereoisomer remaining ([3]; 120 days) | percentage of active S,S stereoisomer remaining ([3]; 180 days) | percentage of active S,S stereoisomer remaining ([3]; T = 0) | Moisture % K.F. [4] | stability test percentage value (active ingredient %), 30 days [5] | stability test percentage value (active ingredient %), 90 days [5] | further results
1 | C[S+](CCC(N)C(=O)[O-])C[C@H]1O[C@@H](n2cnc3c(N)ncnc32)[C@H](O)[C@@H]1O.Cl.Cl.O=S(=O)([O-])[O-].[Mg+2] (stereo partly drawn) [SAMe•2.0HCl•1.0MgSO4] | 0.27% | 0.49% | 0.67% | 1.46% | 1.62% | 86.5% | 95.6% | 93.0% | 91.1% | 88.2% | 98.0% | 89.9% | 87.9% | 83.0% | 79.1% | 73.3% | 98.0% | 0.52% | 0.19% | 0.28% | stability test percentage value (active ingredient %), 180 days [5]: 0.41%; stability test percentage value (active ingredient %), 360 days [5]: 0.65%; stability test percentage value (active ingredient %), 720 days [5]: 0.87%
2 | C[S+](CCC(N)C(=O)[O-])C[C@H]1O[C@@H](n2cnc3c(N)ncnc32)[C@H](O)[C@@H]1O.O=S(=O)(O)O.O=S(=O)(O)O.[Ca+2].[Cl-].[Cl-] (stereo partly drawn) [SAMe•2.0H2SO4•1.0CaCl2] | 0.17% | 0.42% | 0.92% | 1.52% | 2.70% | 95.9% | 94.9% | 93.8% | 91.2% | 87.8% | 97.2% | 89.3% | 85.3% | 83.3% | 79.3% | 75.3% | 97.2% | 0.35% | 0.16% | 0.29% | stability test percentage value (active ingredient %), 180 days [5]: 0.35%; stability test percentage value (active ingredient %), 360 days [5]: 0.68%; stability test percentage value (active ingredient %), 720 days [5]: 0.82%
3 | C[S+](CCC(N)C(=O)[O-])C[C@H]1O[C@@H](n2cnc3c(N)ncnc32)[C@H](O)[C@@H]1O.C[S+](CCC(N)C(=O)[O-])C[C@H]1O[C@@H](n2cnc3c(N)ncnc32)[C@H](O)[C@@H]1O.Cl.[Cl-].[Cl-].[Mg+2] (stereo partly drawn) [SAMe•0.5HCl•0.5MgCl2] | 0.56% | 0.87% | 1.45% | 1.99% | 2.67% | 96.5% | 94.8% | 93.7% | 92.6% | 89.5% | 98.9% | 92.5% | 89.8% | 84.5% | 82.6% | 76.6% | 98.9% | 0.54% | 0.35% | 0.43% | stability test percentage value (active ingredient %), 180 days [5]: 0.76%; stability test percentage value (active ingredient %), 360 days [5]: 0.90%; stability test percentage value (active ingredient %), 720 days [5]: 1.07%
4 | C[S+](CCC(N)C(=O)[O-])C[C@H]1O[C@@H](n2cnc3c(N)ncnc32)[C@H](O)[C@@H]1O.O=S(=O)(O)O.O=S(=O)(O)O.[Cl-].[Cl-].[Mg+2] (stereo partly drawn) [SAMe•2.0H2SO4•1.0MgCl2] | 0.19% | 0.34% | 0.82% | 1.12% | 1.87% | 96.3% | 95.3% | 93.3% | 91.0% | 88.0% | 97.2% | 89.3% | 85.3% | 83.3% | 89.3% | 75.3% | 97.2% | 0.52% | 0.10% | 0.18% | stability test percentage value (active ingredient %), 180 days [5]: 0.25%; stability test percentage value (active ingredient %), 360 days [5]: 0.49%; stability test percentage value (active ingredient %), 720 days [5]: 0.62%
5 | C[S+](CCC(N)C(=O)[O-])C[C@H]1O[C@@H](n2cnc3c(N)ncnc32)[C@H](O)[C@@H]1O.C[S+](CCC(N)C(=O)[O-])C[C@H]1O[C@@H](n2cnc3c(N)ncnc32)[C@H](O)[C@@H]1O.Cl.O=S(=O)([O-])[O-].[Mg+2] (stereo partly drawn) [SAMe•0.5HCl•0.5MgSO4] | 0.48% | 0.78% | 1.54% | 1.98% | 2.78% | 97.8% | 95.8% | 94.3% | 91.6% | 88.2% | 98.9% | 92.8% | 87.8% | 84.6% | 89.6% | 72.6% | 98.9% | 0.82% | 0.31% | 0.46% | stability test percentage value (active ingredient %), 180 days [5]: 0.77%; stability test percentage value (active ingredient %), 360 days [5]: 0.94%; stability test percentage value (active ingredient %), 720 days [5]: 1.19%
6 | C[S+](CCC(N)C(=O)[O-])C[C@H]1O[C@@H](n2cnc3c(N)ncnc32)[C@H](O)[C@@H]1O.O=S(=O)(O)O.O=S(=O)(O)O.O=S(=O)([O-])[O-].[Mg+2] (stereo partly drawn) [SAMe•2.0H2SO4•1.0Mg2SO4•0.4H2O] | 0.33% | 0.44% | 0.61% | 1.02% | 1.59% | 97.3% | 96.4% | 94.1% | 91.3% | 89.8% | 97.5% | 91.3% | 89.4% | 84.1% | 81.3% | 75.8% | 97.5% | 0.34% | 0.14% | 0.28% | stability test percentage value (active ingredient %), 180 days [5]: 0.45%; stability test percentage value (active ingredient %), 360 days [5]: 0.69%; stability test percentage value (active ingredient %), 720 days [5]: 0.92%
